Measurements from US8741894B2, “Arylsulfonamide CCR3 antagonists” (Axikin Pharmaceuticals, Inc., priority 2010, dated 2014).

Assays:
CCR3 receptor = biological target: T1, CCR3 receptor (UniProt P51677); test: CCR3 Receptor Binding Assay ([125I]-labeled human eotaxin/CCL11 displacement on cells); settings: 0.1 nM [125I]-labeled human eotaxin/CCL11, 60 min at room temperature
T1 sequence (P51677 1-355): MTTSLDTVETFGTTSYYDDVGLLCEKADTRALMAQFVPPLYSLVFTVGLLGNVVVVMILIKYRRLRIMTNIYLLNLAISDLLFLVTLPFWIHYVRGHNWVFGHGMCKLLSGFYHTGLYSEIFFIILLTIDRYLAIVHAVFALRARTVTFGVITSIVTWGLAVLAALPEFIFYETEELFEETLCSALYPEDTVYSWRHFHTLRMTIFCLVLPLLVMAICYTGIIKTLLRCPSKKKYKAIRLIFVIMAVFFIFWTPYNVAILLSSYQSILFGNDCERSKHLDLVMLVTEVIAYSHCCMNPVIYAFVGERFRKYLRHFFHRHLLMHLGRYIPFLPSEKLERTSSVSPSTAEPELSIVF
Protocol: Cells were washed once with PBS and resuspended in a binding buffer (25 mM HEPES pH 7.6, 5 mM MgCl2, 1 mM CaCl2, 0.5% BSA, 0.1% NaN3). […] of cell suspension (2×10^5 cells/well) and 0.1 nM [^125I]-labeled human eotaxin/CCL11 (2000 Ci/mmol specific activity) were mixed in a 96-well U-bottom polypropylene plate, and incubated for 60 min at room temperature for the binding reaction. The cell suspension was then transferred to a filtration plate (#MAFB, Millipore), and washed 3 times with the binding buffer containing 0.5 M NaCl, scintillant added, and the radioactivity was counted on a TopCount (Packard). For the determination of non-specific binding, the cell suspension and [^125I]-labeled human eotaxin/CCL11 were incubated in the presence of 500 nM of unlabeled human eotaxin/CCL11. See, lino et al., “Molecular cloning and functional characterization of cynomolgus monkey (Macaca fascicularis) CC chemokine receptor, CCR3,” Cytokine 2002, 19, 276-286.
The biological results are summarized in Table 1, wherein A represents a value no greater than 50 nM, and B represents a value greater than 50 nM but no greater than 500 nM, C represents a value greater than 500 nM but no greater than 5 μM; and D represents a value greater than 5 μM.

hERG channel = biological target: T2, hERG channel (Homo sapiens, UniProt Q12809); test: hERG Receptor Binding Assay (125I-BeKm-1, membranes from HEK-293 cells containing transfected hERG channels); settings: 1 hr at room temperature; for Ki: 125I-BeKm-1 0.1 nM final; for Ki at 1 h: human, pH 7.2, probe 125I-BeKm-1 (0.1 nM final)
T2 construct: purchased Perkin Elmer RBHERGM400UA; host or cells: HEK-293 cells transfected with hERG (membrane preparation)
Protocol: Medium throughput screening of compounds for interaction with the human Ether-a-go-go related gene (hERG) was performed by modification of equilibrium dissociation assays using 125I-labelled peptide BeKm-1. BeKm-1, a scorpion toxin from the Central Asian scorpion Buthus eupeus, selectively blocks the hERG channel. Angelo, K., et al., 2003, Pflugers Arch.-Eur. J. Physiol., 447: 55-63; Chiu, P J S, et al., J. Pharmacol. Sci., 2004, 95: 311-319. Isolated membrane preparations from HEK-293 cells containing transfected hERG channels (hERG K+ Channel Membrane Target Systems™; Cat #, RBHERGM400UA) (Perkin Elmer, Boston, Mass.) were suspended in assay buffer A at a final concentration of 1:150 v/v. Compounds for screening, and non-radiolabelled BeKm-1, as well as 125I-BeKm-1 radioligand (Perkin Elmer; Cat #, NEX-412; Specific Activity 2,200 Ci/mmol), were also reconstituted in Buffer A. Assay components were incubated in 96-well, round-bottom polypropylene plates in the following ratio:
25 μl compound at appropriate concentrations
25 μl radiolabelled BeKm-1 at 0.8 nM (final concentration of 0.1 nM)
150 μl membrane preparation
The assay was incubated with shaking for 1 hr at room temperature. Subsequently, the well contents were transferred to 96-well filtration plates (GF/C multiwell plates (MultiScreen™ HTS; Millipore, 290 Concord Road, Billerica, Mass. 01821 USA; Cat# MSFBN6B-XX pre-soaked in 0.3% polyethyleneimine; Acros Organics, NJ; Cat#178571000). Unbound radioactivity was removed and the membranes washed 4 times with ice-cold Buffer B, under vacuum. Plates were air-dried and bound radioactivity counted on a Packard Top-Count NXT™ microplate scintillation and luminescence counter (Packard Instrument Co., Downers Grove, Ill.). Equilibrium dissociation was analyzed and IC50 and/or Ki values were calculated using GraphPad Prism 4™ software (GraphPad Software, San Diego, Calif.).
Assay Buffer A: ([…] (MP Biomedicals, LLC; 29525 Fountain Parkway, Solon Ohio, 441389; Cat #1688449) in water, pH 7.2 with 1M Tris (Fisher Chemicals, Fair Lawn, N.J. 07410; Cat #, BP-1757-500); 100 μM KCl (Fisher Chemicals, Cat #, BP-366-500); 0.1% BSA (Sigma Aldrich, 3050 Spruce Street, St. Louis, Mo. 63103; Cat #, A3059). Assay Buffer B: 20 mM Tris HCl, pH 7.3; 150 mM NaCl (Fisher Chemicals; Cat #, S78449).
The hERG binding assay results are summarized in Table 2, wherein A represents no measured activity (i.e., a value greater than 100 μM), and B represents a value greater than 10 μM but less than 100 μM and C represents a value less than 10 μM.

T2 sequence (Q12809 whole entry): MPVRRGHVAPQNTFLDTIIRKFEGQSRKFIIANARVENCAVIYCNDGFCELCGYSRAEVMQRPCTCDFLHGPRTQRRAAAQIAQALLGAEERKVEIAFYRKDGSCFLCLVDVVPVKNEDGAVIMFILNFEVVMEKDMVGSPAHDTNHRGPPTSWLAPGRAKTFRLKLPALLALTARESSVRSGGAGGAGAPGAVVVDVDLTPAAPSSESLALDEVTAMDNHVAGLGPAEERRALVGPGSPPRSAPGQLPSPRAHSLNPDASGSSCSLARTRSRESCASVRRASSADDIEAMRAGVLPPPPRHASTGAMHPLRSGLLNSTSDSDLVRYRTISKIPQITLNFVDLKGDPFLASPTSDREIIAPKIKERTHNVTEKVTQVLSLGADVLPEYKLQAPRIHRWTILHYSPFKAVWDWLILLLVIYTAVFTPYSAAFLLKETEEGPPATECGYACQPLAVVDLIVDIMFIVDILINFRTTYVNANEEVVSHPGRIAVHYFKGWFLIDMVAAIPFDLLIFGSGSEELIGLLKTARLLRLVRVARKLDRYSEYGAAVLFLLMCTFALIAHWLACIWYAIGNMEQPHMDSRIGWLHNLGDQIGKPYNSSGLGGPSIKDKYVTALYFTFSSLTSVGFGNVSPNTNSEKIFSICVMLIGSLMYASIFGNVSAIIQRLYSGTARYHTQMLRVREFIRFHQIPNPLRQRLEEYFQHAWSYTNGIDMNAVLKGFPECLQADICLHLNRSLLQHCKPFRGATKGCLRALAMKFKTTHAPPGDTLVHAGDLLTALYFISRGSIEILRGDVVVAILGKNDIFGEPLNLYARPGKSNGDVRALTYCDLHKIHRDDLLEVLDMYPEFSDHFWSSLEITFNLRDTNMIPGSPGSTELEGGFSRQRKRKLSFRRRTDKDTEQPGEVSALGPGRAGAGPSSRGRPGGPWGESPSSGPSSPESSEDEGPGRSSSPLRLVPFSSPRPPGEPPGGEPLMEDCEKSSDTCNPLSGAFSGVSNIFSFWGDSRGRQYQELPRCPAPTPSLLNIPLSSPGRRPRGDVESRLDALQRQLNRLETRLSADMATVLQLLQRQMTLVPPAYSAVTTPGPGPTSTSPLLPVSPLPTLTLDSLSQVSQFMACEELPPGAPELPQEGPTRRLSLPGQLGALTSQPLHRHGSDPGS

Structure (SMILES)	Ki (CCR3 receptor) [nM]	Ki (hERG channel) [nM]	Ki at 1 h (hERG channel) [nM]
N#Cc1ccc(Oc2cc(Cl)cc(Cl)c2)c(S(=O)(=O)N2CCC(NS(=O)(=O)c3cccc(F)c3)CC2)c1 [Compound 25, N-(1-(5-cyano-2-(3,5-dichlorophenoxy)phenylsulfonyl)piperidin-4-yl)-3-fluorobenzenesulfonamide]	50 to 500	> 100000	
CC(C)NC(=S)N1CCC(NS(=O)(=O)c2cc(C#N)ccc2Oc2cc(Cl)cc(Cl)c2)CC1 [Compound 36]	50 to 500		10000 to 100000
Cc1ccc(S(=O)(=O)N2CCC(NS(=O)(=O)c3cc(C#N)ccc3Oc3cc(Cl)cc(Cl)c3)CC2)cc1 [Compound 30, 5-cyano-2-(3,5-dichlorophenoxy)-N-(1-tosylpiperidin-4-yl)benzenesulfonamide]	50 to 500	> 100000	
CC(C)(C)OC(=O)N1CCC(NS(=O)(=O)c2cc(C#N)ccc2Oc2cc(Cl)cc(Cl)c2)CC1 [Compound 2]	> 5000		> 100000
N#Cc1ccc(Oc2cc(Cl)cc(Cl)c2)c(S(=O)(=O)N2CCC(NC(=O)Nc3cccc(F)c3)CC2)c1 [Compound 52]	500 to 5000		> 100000
CS(=O)(=O)N1CCC(NS(=O)(=O)c2cc(C#N)ccc2Oc2cc(Cl)cc(Cl)c2)CC1 [Compound 33]	50 to 500		> 100000
CC(=O)N1CCC(NS(=O)(=O)c2cc(C#N)ccc2Oc2cc(Cl)cc(Cl)c2)CC1 [Compound 38]	50 to 500		> 100000
